# According to patent US8912181B2 (Taiho Pharmaceutical Co., Ltd., priority 2011, dated 2014):
# Experiments:
# [1] = target: human HSP90 alpha protein (N-terminal, amino acids 2 to 236) (Homo sapiens (Human), UniProt P07900); test: Determination of HSP90-binding activity (AlphaScreen competitive assay with biotinylated geldanamycin); settings: inhibition of binding of biotinylated geldanamycin to purified HSP90 N-terminal protein, read-out: HSP-binding activity IC50
# In short: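 His-tagged N-terminal construct (aa 2–236) expressed in E. coli and purified was preincubated with compound 2 h at room temperature, then biotinylated geldanamycin (40 nM/well) added for 1 h. AlphaScreen nickel-chelate acceptor/streptavidin donor beads, 1 h dark; percent inhibition calculated against no-compound signal.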
# SK-BR-3 cells = test: Determination of cell growth inhibition (crystal violet staining method); assay type: cell-based; settings: Homo sapiens; breast cancer cells SK-BR-3, 72 hours culture with test substance
# In short: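 SK-BR-3 cells seeded 5,000/well, cultured 24 h at 37 °C, then exposed to compound for 72 h. Cells fixed with glutaraldehyde, stained with 0.05% crystal violet, eluted and read at 540 nm; percent growth inhibition calculated versus untreated wells.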
IC50 [1] [nM],IC50 (SK-BR-3 cells) [nM],SMILES
280,80,"CCCNc1cc(C(N)=O)ccc1-c1cc(C(F)(F)F)nc2c(-n3cnc(-c4cnn(C)c4)c3)cccc12 [Example 87, 4-(8-(4-(1-Methyl-1H-pyrazol-4-yl)-1H-imidazol-1-yl)-2-(trifluoromethyl)quinolin-4-yl)-3-(propylamino)benzamide]"
350,70,"NC(=O)c1ccc(-c2cc(C(F)(F)F)nc3c(-n4cnc(-c5cccnc5)c4)cccc23)cn1 [Example 88, 5-(8-(4-(Pyridin-3-yl)-1H-imidazol-1-yl)-2-(trifluoromethyl)quinolin-4-yl)picolinamide]"
220,10,"CCNc1cc(-c2cc(C(F)(F)F)nc3c(-n4cnc(-c5cnn(CC)c5)c4)cccc23)ccc1C(N)=O [Example 89, 4-(8-(4-(1-Ethyl-1H-pyrazol-4-yl)-1H-imidazol-1-yl)-2-(trifluoromethyl)quinolin-4-yl)-2-(ethylamino)benzamide]"
580,30,"CCn1cc(-c2cn(-c3cccc4c(-c5ccc(C(N)=O)c(NC(C)(C)C)c5)cc(C(F)(F)F)nc34)cn2)cn1 [Example 90, 2-(Tert-butylamino)-4-(8-(4-(1-ethyl-1H-pyrazol-4-yl)-1H-imidazol-1-yl)-2-(trifluoromethyl)quinolin-4-yl)benzamide]"
790,20,"CC(C)(C)Nc1cc(-c2cc(C(F)(F)F)nc3c(-n4cnc(-c5cnn(C(F)F)c5)c4)cccc23)ccc1C(N)=O [Example 92, 2-(Tert-butylamino)-4-(8-(4-(1-difluoromethyl-1H-pyrazol-4-yl)-1H-imidazol-1-yl)-2-(trifluoromethyl)quinolin-4-yl)benzamide]"
100,20,"Cc1cc2c(-n3cnc(-c4cnn(C)c4)c3)cccc2c(-c2ccc(C(N)=O)c(NC(C)(C)C)c2)n1 [Example 93, 2-(Tert-butylamino)-4-(3-methyl-5-(4-(1-methyl-1H-pyrazol-4-yl)-1H-imidazol-1-yl)isoquinolin-1-yl)benzamide]"
500,110,"Cc1cc(C(N)=O)ccc1-c1cc(C(F)(F)F)nc2c(-n3cnc(-c4cnn(C(F)F)c4)c3)cccc12 [Example 94, 4-(8-(4-(1-Difluoromethyl-1H-pyrazol-4-yl)-1H-imidazol-1-yl)-2-(trifluoromethyl)quinolin-4-yl)-3-methylbenzamide]"
400,1020,"Cc1cc2c(-n3cnc(-c4cnn(C)c4)c3)cccc2c(-c2ccc(C(N)=O)cc2C)n1 [Example 95, 3-Methyl-4-(3-methyl-5-(4-(1-methyl-1H-pyrazol-4-yl)-1H-imidazol-1-yl)isoquinolin-1-yl)benzamide]"
140,60,"Cn1cc(-c2cn(-c3cccc4c(-c5ccc(C(N)=O)c(NC(C)(C)C)c5)nccc34)cn2)cn1 [Example 96, 2-(Tert-butylamino)-4-(5-(4-(1-methyl-1H-pyrazol-4-yl)-1H-imidazol-1-yl)isoquinolin-1-yl)benzamide]"
160,20,"Cc1cc(-c2ccc(C(N)=O)c(NC(C)(C)C)c2)c2cccc(-n3cnc(-c4cnn(C)c4)c3)c2n1 [Example 97, 2-(Tert-butylamino)-4-(2-methyl-8-(4-(1-methyl-1H-pyrazol-4-yl)-1H-imidazol-1-yl)quinolin-4-yl)benzamide]"
80,20,"COCCNc1cc(-c2nc(C)cc3c(-n4cnc(-c5cnn(C)c5)c4)cccc23)ccc1C(N)=O [Example 98, 2-(2-Methoxyethylamino)-4-(3-methyl-5-(4-(1-methyl-1H-pyrazol-4-yl)-1H-imidazol-1-yl)isoquinolin-1-yl)benzamide]"
270,40,"Cc1ccc(-c2cn(-c3cccc4c(-c5ccc(C(N)=O)c(NC(C)(C)C)c5)cc(C(F)(F)F)nc34)cn2)cn1 [Example 99, 2-(Tert-butylamino)-4-(8-(4-(6-methylpyridin-3-yl)-1H-imidazol-1-yl)-2-(trifluoromethyl)quinolin-4-yl)benzamide]"
340,260,"Cc1ccc(-c2cn(-c3cccc4c(-c5ccc(C(N)=O)cc5C)cc(C(F)(F)F)nc34)cn2)cn1 [Example 100, 3-Methyl-4-(8-(4-(6-methylpyridin-3-yl)-1H-imidazol-1-yl)-2-(trifluoromethyl)quinolin-4-yl)benzamide]"
120,120,"Cc1cc(-c2ccc(C(N)=O)c(N)c2)c2cccc(-n3cnc(-c4cnn(C)c4)c3)c2n1 [Example 101, 2-Amino-4-(2-methyl-8-(4-(1-methyl-1H-pyrazol-4-yl)-1H-imidazol-1-yl)quinolin-4-yl)benzamide]"
250,630,"Cc1cc(-c2ccc(C(N)=O)cc2C)c2cccc(-n3cnc(-c4cnn(C)c4)c3)c2n1 [Example 102, 3-Methyl-4-(2-methyl-8-(4-(1-methyl-1H-pyrazol-4-yl)-1H-imidazol-1-yl)quinolin-4-yl)benzamide]"
120,10,"CCc1cc(-c2ccc(C(N)=O)c(NC(C)(C)C)c2)c2cccc(-n3cnc(-c4cnn(C)c4)c3)c2n1 [Example 103, 2-(Tert-butylamino)-4-(2-ethyl-8-(4-(1-methyl-1H-pyrazol-4-yl)-1H-imidazol-1-yl)quinolin-4-yl)benzamide]"
60,10,"CCc1cc(-c2ccc(C(N)=O)c(N)c2)c2cccc(-n3cnc(-c4cnn(C)c4)c3)c2n1 [Example 104, 2-Amino-4-(2-ethyl-8-(4-(1-methyl-1H-pyrazol-4-yl)-1H-imidazol-1-yl)quinolin-4-yl)benzamide]"
400,20,"Cn1cc(-c2cn(-c3cccc4c(-c5ccc(C(N)=O)c(NC(C)(C)C)c5)cc(C5CC5)nc34)cn2)cn1 [Example 105, 2-(Tert-butylamino)-4-(2-cyclopropyl-8-(4-(1-methyl-1H-pyrazol-4-yl)-1H-imidazol-1-yl)quinolin-4-yl)benzamide]"
3750,340,"NC(=O)c1ccc(-c2cc(C(F)(F)F)nc3c(-n4cnc(-c5ccccc5)c4)cccc23)cc1N [Example 108, 2-Amino-4-(8-(4-phenyl-1H-imidazol-1-yl)-2-(trifluoromethyl)quinolin-4-yl)benzamide]"
4360,210,"CC(C)OCCNc1cc(-c2cc(C(F)(F)F)nc3c(-n4cnc(-c5ccccc5)c4)cccc23)ccc1C(N)=O [Example 109, 2-(Isopropoxyethylamino)-4-(8-(4-phenyl-1H-imidazol-1-yl)-2-(trifluoromethyl)quinolin-4-yl)benzamide]"
380,100,"NC(=O)c1ccc(-c2cc(C(F)(F)F)nc3c(-c4cnc5ccccc5c4)cccc23)cc1N [Example 110, 2-Amino-4-(2′-(trifluoromethyl)-3,8′-biquinolin-4′-yl)benzamide]"
840,60,"CC(C)OCCNc1cc(-c2cc(C(F)(F)F)nc3c(-c4cnc5ccccc5c4)cccc23)ccc1C(N)=O [Example 111, 2-(2-Isopropoxyethylamino)-4-(2′-(trifluoromethyl)-3,8′-biquinolin-4′-yl)benzamide]"
